Key:
[1] = biological target: T1, LKB1 (human LKB1:STRADα:MO25α complex) (Homo sapiens, UniProt Q15831); assay: LKB1 activity using LKBtide peptide; assay type: biochemical; conditions: LKBtide substrate
T1 construct: made in house
T1 sequence (Q15831 1-433): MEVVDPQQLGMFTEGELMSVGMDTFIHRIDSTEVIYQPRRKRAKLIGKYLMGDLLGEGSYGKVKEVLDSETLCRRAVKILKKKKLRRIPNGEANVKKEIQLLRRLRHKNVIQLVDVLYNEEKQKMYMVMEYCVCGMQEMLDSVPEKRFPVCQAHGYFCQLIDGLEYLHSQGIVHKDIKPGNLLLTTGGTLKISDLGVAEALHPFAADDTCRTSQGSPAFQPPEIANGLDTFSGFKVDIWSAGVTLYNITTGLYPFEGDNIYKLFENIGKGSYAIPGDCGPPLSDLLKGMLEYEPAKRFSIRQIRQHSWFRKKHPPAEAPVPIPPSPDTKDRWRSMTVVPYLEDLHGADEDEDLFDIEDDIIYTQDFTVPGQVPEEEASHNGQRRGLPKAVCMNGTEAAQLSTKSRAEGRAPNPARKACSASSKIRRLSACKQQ
T1 sequence (Q7RTN6 1-431 partner): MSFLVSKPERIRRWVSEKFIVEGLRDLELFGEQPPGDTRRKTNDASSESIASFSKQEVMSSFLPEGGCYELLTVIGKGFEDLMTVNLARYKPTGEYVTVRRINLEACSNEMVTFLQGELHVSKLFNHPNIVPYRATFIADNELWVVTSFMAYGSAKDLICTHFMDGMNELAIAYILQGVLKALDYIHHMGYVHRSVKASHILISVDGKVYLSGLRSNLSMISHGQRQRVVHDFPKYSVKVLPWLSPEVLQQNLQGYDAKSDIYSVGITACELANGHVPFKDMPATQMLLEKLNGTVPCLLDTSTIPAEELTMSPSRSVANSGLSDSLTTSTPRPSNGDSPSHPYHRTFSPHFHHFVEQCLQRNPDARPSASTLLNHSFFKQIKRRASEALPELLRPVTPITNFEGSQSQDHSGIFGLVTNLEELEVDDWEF
T1 sequence (Q9Y376 1-341 partner): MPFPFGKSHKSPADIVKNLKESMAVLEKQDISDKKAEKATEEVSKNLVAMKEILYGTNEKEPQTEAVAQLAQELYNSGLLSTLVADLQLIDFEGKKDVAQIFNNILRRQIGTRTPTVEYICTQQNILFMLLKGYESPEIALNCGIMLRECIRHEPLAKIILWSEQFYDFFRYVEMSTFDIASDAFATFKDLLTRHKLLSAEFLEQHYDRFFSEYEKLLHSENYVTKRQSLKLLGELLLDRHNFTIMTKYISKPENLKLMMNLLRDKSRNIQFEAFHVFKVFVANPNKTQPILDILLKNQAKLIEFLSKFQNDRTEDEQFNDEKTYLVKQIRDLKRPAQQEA
Procedure: To directly determine LKB1 activity, kinase assays were performed in the presence or absence of the indicated concentration of BAY-3827 or SBI-0206965 as for AMPK, except that LKBtide was used as a peptide substrate. PPM1A activity was determined using p-nitrophenyl phosphate (pNPP) as a substrate. PPM1A (5 µg) was incubated with 50 mM pNPP and 50 mM MgCl2 in Hepes buffer in the presence of a vehicle or the indicated concentration of BAY-3827 or SBI-0206965 for 10 min at 30 °C. The reaction was quenched by the addition of 1 mL of 0.5 M EDTA and the amount of product, p-nitrophenol, determined by measuring absorbance at 405 nm.

[2] = tested on: native AMPK purified from rat liver; assay: Cell-free kinase assay of purified rat liver AMPK; assay type: biochemical; conditions: ATP 200 µM; for IC50: read-out: IC50, inhibition of rat liver AMPK complexes
From the text: AMPK assays measured the transfer of radioactivity from labelled ATP to a peptide substrate, which was separated from unreacted ATP by binding to P81 paper. This assay was described previously, except that we used [γ-^33P]ATP rather than [γ-^32P]ATP. The peptide substrate was the AMARA peptide in all experiments other than one, which analyzed allosteric activation by AMP (Figure 2A), when, for technical reasons, the SAMS peptide was used instead. […] After each wash, the pellet was recovered via centrifugation (16,000× g, 3 min) and then resuspended. The final resuspended pellets from each biological replicate were divided into two aliquots (40 µg lysate protein) to provide technical replicates and assayed as above.

Row | effect on LKB1 activity ([1]; all concentrations used) | Compound | fold more potent than SBI-0206965 against purified rat liver AMPK [2] [fold] | IC50 [2] [nM] | IC50 ([1]; read-out: IC50, inhibition of LKB1 activity) [nM]
1 | no inhibition | CCc1ccccc1C(=O)Nc1n[nH]c2c(C)c(F)c(C3C(C#N)=C(C)N(C)C(C)=C3C#N)cc12 [BAY-3827] | > 20 | 17 | –
2 | – | CNC(=O)c1ccccc1Oc1nc(Nc2cc(OC)c(OC)c(OC)c2)ncc1Br [SBI-0206965] | – | 360 | 6100

— publication PMC10778976, “BAY-3827 and SBI-0206965: Potent AMPK Inhibitors That Paradoxically Increase Thr172 Phosphorylation” (International Journal of Molecular Sciences, 2023)
